Assay results as given in patent publication US10047345B2, “Culturing of mesenchymal stem cells with FGF4 and nicotinamide” (Gamida-Cell Ltd., priority 2012, dated 2018).
Entries after “also recorded” stand apart in the source; their conditions may differ.

Key:
Format in all cases: cell-based, human
[1] = test system: mesenchymal stem cells; test: Expansion of mesenchymal stem cells with growth factors with and without nicotinamide (cumulative cell count); conditions: NAM 5 mM, FGF4 50 ng/ml
Experimental: Bone marrow derived and adipose tissue derived mesenchymal cells were isolated based on their plastic adherence potential in expansion medium containing: High glucose DMEM and 10% Fetal Bovine Serum (FBS, Hyclone, Logan, Utah, USA) supplemented with 0.05 mg/ml Gentamicin (Sigma) and 2 mM L-glutamine (Biological Industries, Israel). Cells were allowed to adhere for 3-4 days and non-adherent cells were washed out with medium changes. The medium was further exchanged with fresh medium every 3-4 days.
Once adherent cells reached approximately 80-90% confluency, they were detached with 0.25% trypsin-EDTA (Sigma), washed twice in DMEM and 10% Fetal Bovine Serum, with centrifugation, 400 g, 5 minutes, and replated at a 1:2 to 1:1000 dilution under the same culture conditions.
Cell number was measured using Cedex Automated Cell Counter (Innovatis). The cells were diluted 1:2 in Trypan Blue (Sigma) and cell number was measured automatically under microscope. […]
Mesenchymal stem cells were selected and cultured in the presence of particular growth factors (basic fibroblast growth factor—bFGF, heparin binding epidermal growth factor—HB-EGF, fibroblast growth factor 4—FGF-4 and platelet derived growth factor, homodimer, subunit B, PDGF-BB) in the presence and absence of nicotinamide for three or four passages and the number and size of the cells was calculated. […]

[2] = test system: bone marrow derived mesenchymal stem cells; test: Seeding, expansion, size and granularity of bone marrow derived MSCs with nicotinamide
Experimental: Bone marrow derived and adipose tissue derived mesenchymal cells were isolated based on their plastic adherence potential in expansion medium containing: High glucose DMEM and 10% Fetal Bovine Serum (FBS, Hyclone, Logan, Utah, USA) supplemented with 0.05 mg/ml Gentamicin (Sigma) and 2 mM L-glutamine (Biological Industries, Israel). Cells were allowed to adhere for 3-4 days and non-adherent cells were washed out with medium changes. The medium was further exchanged with fresh medium every 3-4 days. Once adherent cells reached approximately 80-90% confluency, they were detached with 0.25% trypsin-EDTA (Sigma), washed twice in DMEM and 10% Fetal Bovine Serum, with centrifugation, 400 g, 5 minutes, and replated at a 1:2 to 1:1000 dilution under the same culture conditions. Cell size was measured using Cedex Automated Cell Counter (Innovatis). The cells were diluted 1:2 in Trypan Blue (Sigma) and cell size was measured automatically under microscope. Following trypsin treatment, the cells were analyzed for granularicity by side scatter FACS. Cell number was measured using Cedex Automated Cell Counter (Innovatis). The cells were diluted 1:2 in Trypan Blue (Sigma) and cell number was measured automatically under microscope. […] At each passage and at each medium exchange, the cultures were supplemented with mesenchymal medium, nicotinamide and growth factors.

[3] = test system: adipose tissue derived mesenchymal stem cells; test: Expansion and phenotype of adipose tissue derived MSCs with nicotinamide
Experimental: (§1) Cell number was measured using Cedex Automated Cell Counter (Innovatis). The cells were diluted 1:2 in Trypan Blue (Sigma) and cell number was measured automatically under microscope.

[4] = test system: mesenchymal stem cells; test: CFU-F assay; conditions: 5 mM nicotinamide
Experimental: Cultured MSCs were seeded in 6-well plates at density of 50-100 cells/cm^2 and maintained with DMEM and 10% FBS. After 14 days the cells were fixed using 10% cold Formalin (Sigma) and stained with Harris Hematoxylin (Sigma). Clones (cluster of more than 50 cells with evident epicenter) are stained blue-purple and counted using microscope.

[5] = test system: bone marrow-derived mesenchymal stem cells; test: Senescence evaluation assay (beta-galactosidase staining); conditions: 5 passages, 5 mM NAM, X-Gal staining
Experimental: Cultured MSCs were stained using the Senescence beta-Galactosidase Staining Kit (Cell Signaling). The cells are fixed and stained for detection of beta-Galactosidase activity at pH 6 using X-Gal and incubation overnight in 37° C. in dry incubator.

[6] = test system: mesenchymal stem cells; test: Surface expression of VCAM1/CD106 and CD54 by FACS; conditions: versus MSCs grown without nicotinamide
Experimental: Mesenchymal stem cells were isolated using plastic adherence method, as described above and cultured for several passages with fetal bovine serum, ±NAM. The cells were selected in the presence of NAM. At about 80% confluence, adherent cells were collected following trypsin treatment, counted, characterized and re-seeded at a concentration of 1×10^3 cells/cm^2. Following Trypsin treatment the cells were analyzed for CD 106 expression in FACS using anti-human CD 106 PE antibodies. Following Trypsin treatment the cells were analyzed for CD54 expression in FACS using anti-human CD54 antibodies.

[7] = test system: mesenchymal stem cells; test: In vitro wound healing assay; conditions: passage 3, 4 days post wound formation
Experimental: Wound was performed in MSCs cultures at ˜70% confluence using 200 μl or 1000 μl tip. Four days later the cells were fixated using 10% cold Formalin (Sigma) and stained with Harris Hematoxylin (Sigma). The in-vitro wound healing process was evaluated using microscope.

[8] = test system: mesenchymal stem cells; test: Large batch and serum batch MSC culture with nicotinamide (cell count)
Experimental: Cell number was measured using Cedex Automated Cell Counter (Innovatis). The cells were diluted 1:2 in Trypan Blue (Sigma) and cell number was measured automatically under microscope. Mesenchymal stem cells were isolated using plastic adherence method, as described above and cultured for several passages with fetal bovine serum, ±NAM. The cells were selected in the presence of NAM. At about 80% confluence, adherent cells were collected following trypsin treatment, counted, characterized and re-seeded at a concentration of 1×10^3 cells/cm^2.

[9] = test system: bone marrow mesenchymal stem cells; test: Growth factor secretion into conditioned medium (ELISA); conditions: passage 4, 5 mM NAM, 50 ng/ml FGF4
Experimental: In some experiments, the adherent cells were cultured with or without nicotinamide and indicated factors, and 24 hours before passage 4, and the medium replaced with medium without fetal bovine serum or FGF4. Medium from MSC cultured as indicated, and depleted of fetal bovine serum and FGF4 24 hours before passage 4 was collected and assayed by ELISA for growth factors and immune-related factors secreted into the medium ([…] HGF, transforming growth factor beta TGF-β, keratinocyte growth factor KGF and interleukin 6 IL-6). ELISA was carried out using solid phase sandwich ELISA kits specific for human KGF (R&D systems, cat#DKG00), IL-6 (R&D systems, cat#D6050), TGF-β1 (R&D systems, cat#DB100B), HGF (R&D systems, cat#DHG00).

[10] = test system: adipose-derived mesenchymal stem cells; test: Adipose-derived MSC proliferation and cell size with nicotinamide with or without FGF4; conditions: Cedex cell counter; 5 mM NAM, 50 ng/ml FGF4
Experimental: as §1

NC(=O)c1cccnc1 [nicotinamide, Nicotinamide]
effect on the ability of FGF4 to increase proliferation of mesenchymal stem cells [1]: potentiating effect | seeding efficacy (selection) of bone marrow derived MSCs [2]: increased the seeding efficacy | expansion rate of bone marrow derived MSCs at low nicotinamide concentration ([2]; 0.1 mM nicotinamide, figure not shown): insignificant effect | cell size and granularity of MSCs versus culture without nicotinamide ([2]; identical conditions without nicotinamide as comparison): smaller and less granular | doubling time of MSCs ([2]; nicotinamide added from initiation of culture and at each passage): decreased | differentiation state (surface marker composition) after expansion in nicotinamide ([3]; at least six passages): without induction of differentiation | adipose derived mesenchymal stem cell expansion in culture ([3]; nicotinamide added from passage 3): substantially improved | cumulative CFU-F count [4]: increases the cumulative CFU-F count | amount of senescent cells [5]: reduced | CD54 expression [6]: express less CD54 | VCAM1/CD106 expression [6]: express more VCAM1/CD106 | wound closure by MSCs [7]: higher ability to perform wound closure | effect on cell count in large batches of MSCs ([8]; large batch culture): evident on large batches | dependence of the proliferative effect on serum batch ([8]; one of two experiments): not dependent on a particular batch of serum | hepatocyte growth factor (HGF) in conditioned medium [9]: elevated levels | interleukin 6 (IL-6) secreted into conditioned medium [9]: reduced levels; also recorded: reduction | keratinocyte growth factor (KGF) in conditioned medium [9]: elevated levels | transforming growth factor beta (TGF-β) in conditioned medium [9]: elevated levels | prevalence of smaller size cells in adipose derived MSC cultures [10]: increased prevalence of smaller size cells
